Patent US7998965B2, “Glutamate aggrecanase inhibitors” (Wyeth LLC, priority 2005, dated 2011)
Read-outs that look alike come from different tables or passages of the source.

Tests used:
[1] = target: T1, purified recombinant human Aggrecanase-1 (rAgg1) (Homo sapiens, UniProt O75173); experiment: In vitro fluorescence screen for Aggrecanase-1 inhibitors; type: biochemical; conditions: for IC50: read-out: Agg1 IC50
T1 sequence (O75173 213-837): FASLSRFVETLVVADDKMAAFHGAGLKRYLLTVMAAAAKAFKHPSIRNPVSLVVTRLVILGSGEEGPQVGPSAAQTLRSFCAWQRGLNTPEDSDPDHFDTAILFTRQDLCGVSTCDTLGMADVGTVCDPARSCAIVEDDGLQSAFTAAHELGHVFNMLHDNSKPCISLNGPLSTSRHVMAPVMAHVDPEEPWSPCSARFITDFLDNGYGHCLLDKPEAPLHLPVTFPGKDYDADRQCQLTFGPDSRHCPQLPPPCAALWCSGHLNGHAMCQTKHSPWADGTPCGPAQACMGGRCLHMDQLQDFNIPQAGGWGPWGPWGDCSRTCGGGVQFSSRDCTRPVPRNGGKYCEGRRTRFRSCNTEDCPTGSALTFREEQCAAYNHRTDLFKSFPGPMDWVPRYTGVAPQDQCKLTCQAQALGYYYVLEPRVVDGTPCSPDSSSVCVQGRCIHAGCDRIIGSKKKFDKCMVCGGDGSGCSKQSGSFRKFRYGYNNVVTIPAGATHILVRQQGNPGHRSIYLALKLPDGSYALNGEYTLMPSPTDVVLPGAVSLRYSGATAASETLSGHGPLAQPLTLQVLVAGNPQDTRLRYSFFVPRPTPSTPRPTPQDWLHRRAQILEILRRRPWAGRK

[2] = target: T2, purified recombinant human Aggrecanase-2 (Ag2t-Phe628-Strep) (Homo sapiens, UniProt Q9UNA0); experiment: In vitro fluorescence screen for Aggrecanase-2 inhibitors; type: biochemical; conditions: for IC50: read-out: Agg 2 IC50
T2 construct: the form used is denoted as Ag2t-Phe628-Strep (MW=41,737)
T2 sequence (Q9UNA0 262-628): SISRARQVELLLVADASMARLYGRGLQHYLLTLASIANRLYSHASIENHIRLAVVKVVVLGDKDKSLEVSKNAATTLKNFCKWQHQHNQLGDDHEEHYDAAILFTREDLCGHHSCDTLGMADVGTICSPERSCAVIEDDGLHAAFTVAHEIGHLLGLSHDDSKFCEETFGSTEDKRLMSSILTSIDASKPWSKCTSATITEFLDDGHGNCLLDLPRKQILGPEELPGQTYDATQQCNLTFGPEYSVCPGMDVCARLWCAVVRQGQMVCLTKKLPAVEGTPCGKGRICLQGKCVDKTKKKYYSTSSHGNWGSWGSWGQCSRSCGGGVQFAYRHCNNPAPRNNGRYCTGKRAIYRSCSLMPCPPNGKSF

Structure (SMILES): O=C(O)CC[C@H](NC(=O)c1ccc2c(c1)Cc1ccccc1-2)C(=O)NC12CC3CC(CC(C3)C1)C2 [Example 8AAAAA, N^1-1-adamantyl-N^2-(9H-fluoren-2-ylcarbonyl)-L-α-glutamine]
- IC50 ([1]; Table 2): 372 nM
- IC50 ([2]; Table 2): 410 nM

Structure (SMILES): O=C(O)CC[C@H](NC(=O)c1ccc(-c2ccccc2)cc1)C(=O)NCC12CC3CC(CC(C3)C1)C2 [Example 8AAAAAA, N-(1-adamantylmethyl)-N^2-(biphenyl-4-ylcarbonyl)-L-α-glutamine]
- IC50 ([1]; Table 2): 534 nM
- IC50 ([2]; Table 2): 1760 nM

Structure (SMILES): CC(C)(Cc1ccc(Cl)cc1)NC(=O)[C@H](CCC(=O)O)NC(=O)c1ccc(-c2ccc(F)cc2F)cc1 [Example 8AAAAAAA, N-[2-(4-chlorophenyl)-1,1-dimethylethyl]-N^2-[(2′,4′-difluorobiphenyl-4-yl)carbonyl]-L-α-glutamine]
- IC50 ([1]; Table 3): 80 nM
- IC50 ([2]; Table 3): 550 nM

Structure (SMILES): O=C(O)CC[C@H](NC(=O)C1c2ccccc2-c2ccccc21)C(=O)NC12CC3CC(CC(C3)C1)C2 [Example 8BBBBB, N^1-1-adamantyl-N^2-(9H-fluoren-9-ylcarbonyl)-L-α-glutamine]
- IC50 ([1]; Table 2): > 17000 nM
- IC50 ([2]; Table 2): 20900 nM

Structure (SMILES): O=C(O)CC[C@H](NC(=O)c1ccc2c(c1)Cc1ccccc1-2)C(=O)N[C@H](CO)Cc1ccccc1 [Example 8BBBBBB, N-[(1S)-1-benzyl-2-hydroxyethyl]-N^2-(9H-fluoren-2-ylcarbonyl)-L-α-glutamine]
- IC50 ([1]; Table 2): 470 nM
- IC50 ([2]; Table 2): 2670 nM

Structure (SMILES): CC(C)(Cc1ccc(Cl)cc1)NC(=O)[C@H](CCC(=O)O)NC(=O)c1ccc(-c2cc(F)ccc2F)cc1 [Example 8BBBBBBB, N-[2-(4-chlorophenyl)-1,1-dimethylethyl]-N^2-[(2′,5′-difluorobiphenyl-4-yl)carbonyl]-L-α-glutamine]
- IC50 ([1]; Table 3): 110 nM
- IC50 ([2]; Table 3): 1000 nM

Structure (SMILES): CC(C)(Cc1ccc(F)cc1)NC(=O)[C@H](CCC(=O)O)NC(=O)c1ccc(-c2ccc3c(c2)OCC3)cc1 [Example 8BBBBBBBB, N^2-[4-(2,3-dihydro-1-benzofuran-6-yl)benzoyl]-N-[2-(4-fluorophenyl)-1,1-dimethylethyl]-L-α-glutamine]
- IC50 ([1]; Table 3): 300 nM
- IC50 ([2]; Table 3): 200 to 600 nM

Structure (SMILES): CC(C)(Cc1ccc(F)cc1)NC(=O)[C@H](CCC(=O)O)NC(=O)c1ccc(-c2cccs2)s1 [Example 8BBBBBBBBB, N^2-(2,2′-bithien-5-ylcarbonyl)-N-[2-(4-fluorophenyl)-1,1-dimethylethyl]-L-α-glutamine]
- IC50 ([1]; Table 3): < 30 nM
- Ki ([1]; Table 3, read-out: Ki Agg1): 11.5 nM
- IC50 ([2]; Table 3): 100 to 300 nM
- Ki ([2]; Table 3, read-out: Ki Agg2): 681 nM

Structure (SMILES): CC(C)(Cc1ccccc1)NC(=O)[C@H](CCC(=O)O)NC(=O)c1sccc1-c1ccccc1 [Example 8BBBBBBBBBB, N-(1,1-dimethyl-2-phenylethyl)-N^2-[(3-phenyl-2-thienyl)carbonyl]-L-α-glutamine]
- IC50 ([1]; Table 3): 22000 nM
- IC50 ([2]; Table 3): > 200000 nM

Structure (SMILES): CN(CCc1ccccc1)C(=O)[C@H](CCC(=O)O)NC(=O)c1ccc(-c2ccccc2)cc1 [Example 8CCCCCC, N^2-(biphenyl-4-ylcarbonyl)-N-methyl-N-(2-phenylethyl)-L-α-glutamine]
- IC50 ([1]; Table 2): 2400 nM
- IC50 ([2]; Table 2): > 22000 nM

Structure (SMILES): CC(C)(Cc1ccc(Cl)cc1)NC(=O)[C@H](CCC(=O)O)NC(=O)c1ccc(-c2c(F)cccc2F)cc1 [Example 8CCCCCCC, N-[2-(4-chlorophenyl)-1,1-dimethylethyl]-N^2-[(2′,6′-difluorobiphenyl-4-yl)carbonyl]-L-α-glutamine]
- IC50 ([1]; Table 3): 50 nM
- IC50 ([2]; Table 3): 680 nM

Structure (SMILES): Cc1cccc(CNC(=O)[C@H](CCC(=O)O)NC(=O)c2ccc3c(c2)C(=O)c2ccccc2-3)c1 [Example 8DDDDD, N^1-(3-methylbenzyl)-N^2-[(9-oxo-9H-fluoren-2-yl)carbonyl]-L-α-glutamine]
- IC50 ([1]; Table 2): 315 nM
- IC50 ([2]; Table 2): 1100 nM

Structure (SMILES): CN(CCc1ccccc1)C(=O)[C@H](CCC(=O)O)NC(=O)c1ccc2c(c1)Cc1ccccc1-2 [Example 8DDDDDD, N^2-(9H-fluoren-2-ylcarbonyl)-N-methyl-N-(2-phenylethyl)-L-α-glutamine]
- IC50 ([1]; Table 2): 2400 nM
- IC50 ([2]; Table 2): > 22000 nM

Structure (SMILES): CC(C)(Cc1ccc(Cl)cc1)NC(=O)[C@H](CCC(=O)O)NC(=O)c1ccc(-c2cc(F)cc(F)c2)cc1 [Example 8DDDDDDD, N-[2-(4-chlorophenyl)-1,1-dimethylethyl]-N^2-[(3′,5′-difluorobiphenyl-4-yl)carbonyl]-L-α-glutamine]
- IC50 ([1]; Table 3): < 30 nM
- IC50 ([2]; Table 3): 220 nM

Structure (SMILES): Cc1cccc(CNC(=O)[C@H](CCC(=O)O)NC(=O)C2c3ccccc3-c3ccccc32)c1 [Example 8EEEEE, N^2-(9H-fluoren-9-ylcarbonyl)-N^1-(3-methylbenzyl)-L-α-glutamine]
- IC50 ([1]; Table 2): > 50000 nM
- IC50 ([2]; Table 2): > 200000 nM

Structure (SMILES): CC(C)(Cc1ccc(Cl)cc1)NC(=O)[C@H](CCC(=O)O)NC(=O)c1ccc(-c2cccc(F)c2F)cc1 [Example 8EEEEEEE, N-[2-(4-chlorophenyl)-1,1-dimethylethyl]-N^2-[(2′,3′-difluorobiphenyl-4-yl)carbonyl]-L-α-glutamine]
- IC50 ([1]; Table 3): 37 nM
- IC50 ([2]; Table 3): 510 nM

Structure (SMILES): O=C(O)CC[C@H](NC(=O)c1ccc(-c2ccccc2)cc1)C(=O)NCCc1ccccc1 [Example 8FFF, N^2-(1,1′-biphenyl-4-ylcarbonyl)-N^1-(2-phenylethyl)-L-α-glutamine]
- IC50 ([1]; Table 1): 200 nM
- IC50 ([2]; Table 1): 1000 nM

Structure (SMILES): CCCCN(C)C(=O)[C@H](CCC(=O)O)NC(=O)c1ccc2c(c1)Cc1ccccc1-2 [Example 8FFFFFF, N-butyl-N^2-(9H-fluoren-2-ylcarbonyl)-N-methyl-L-α-glutamine]
- IC50 ([1]; Table 2): 3900 nM
- IC50 ([2]; Table 2): 18100 nM

Structure (SMILES): CC(C)(Cc1ccccc1)NC(=O)[C@H](CCC(=O)O)NC(=O)c1ccc(-c2cncnc2)cc1 [Example 8FFFFFFF, N-(1,1-dimethyl-2-phenylethyl)-N^2-(4-pyrimidin-5-ylbenzoyl)-L-α-glutamine]
- IC50 ([1]; Table 3): 200 nM
- IC50 ([2]; Table 3): 4200 nM

Structure (SMILES): CC(C)(Cc1ccccc1)NC(=O)[C@H](CCC(=O)O)NC(=O)c1ccc(-c2ccc(F)c(F)c2)cc1 [Example 8GGGGGGG, N^2-[(3′,4′-difluorobiphenyl-4-yl)carbonyl]-N-(1,1-dimethyl-2-phenylethyl)-L-α-glutamine]
- IC50 ([1]; Table 3): 60 nM
- IC50 ([2]; Table 3): 160 nM

Structure (SMILES): CC(C)(Cc1ccc(F)cc1)NC(=O)[C@H](CCC(=O)O)NC(=O)c1ccc(-c2ccc3c(c2)OCO3)cc1 [Example 8HHHHHH, N^2-[4-(1,3-benzodioxol-5-yl)benzoyl]-N-[2-(4-fluorophenyl)-1,1-dimethylethyl]-L-α-glutamine]
- IC50 ([1]; Table 2): 38 nM
- IC50 ([2]; Table 2): 46 nM

Structure (SMILES): CC(C)(Cc1ccccc1)NC(=O)[C@H](CCC(=O)O)NC(=O)c1ccc(-c2cc(F)cc(F)c2)cc1 [Example 8HHHHHHH, N^2-[(3′,5′-difluorobiphenyl-4-yl)carbonyl]-N-(1,1-dimethyl-2-phenylethyl)-L-α-glutamine]
- IC50 ([1]; Table 3): 50 nM
- IC50 ([2]; Table 3): 180 nM

Structure (SMILES): O=C(O)CC[C@H](NC(=O)c1ccc2c(c1)C(=O)c1ccccc1-2)C(=O)NCc1ccccc1 [Example 8IIIII, N^1-benzyl-N^2-[(9-oxo-9H-fluoren-2-yl)carbonyl]-L-α-glutamine]
- IC50 ([1]; Table 2): 813 nM
- IC50 ([2]; Table 2): 1900 nM

Structure (SMILES): COc1ccc(CCN(C)C(=O)[C@H](CCC(=O)O)NC(=O)c2ccc3c(c2)Cc2ccccc2-3)cc1OC [Example 8IIIIII, N-[2-(3,4-dimethoxyphenyl)ethyl]-N^2-(9H-fluoren-2-ylcarbonyl)-N-methyl-L-α-glutamine]
- IC50 ([1]; Table 2): 2900 nM
- IC50 ([2]; Table 2): 11900 nM

Structure (SMILES): CC(C)(Cc1ccc(Cl)s1)NC(=O)[C@H](CCC(=O)O)NC(=O)c1ccc(-c2ccc(F)c(F)c2)cc1 [Example 8IIIIIII, N-[2-(5-chloro-2-thienyl)-1,1-dimethylethyl]-N^2-[(3′,4′-difluorobiphenyl-4-yl)carbonyl]-L-α-glutamine]
- IC50 ([1]; Table 3): < 30 nM
- IC50 ([2]; Table 3): 42 nM

Structure (SMILES): O=C(O)CC[C@H](NC(=O)c1ccc2c(c1)Cc1ccccc1-2)C(=O)NCc1ccccc1 [Example 8JJJJJ, N^1-benzyl-N^2-(9H-fluoren-2-ylcarbonyl)-L-α-glutamine]
- IC50 ([1]; Table 2): 191 nM
- IC50 ([2]; Table 2): 1100 nM

Structure (SMILES): C[C@@H](CNC(=O)[C@H](CCC(=O)O)NC(=O)c1ccc2c(c1)Cc1ccccc1-2)c1ccccc1 [Example 8JJJJJJ, N^2-(9H-fluoren-2-ylcarbonyl)-N-[(2R)-2-phenylpropyl]-L-α-glutamine]
- IC50 ([1]; Table 2): 300 nM
- IC50 ([2]; Table 2): 943 nM

Structure (SMILES): CC(C)(Cc1ccc(Cl)s1)NC(=O)[C@H](CCC(=O)O)NC(=O)c1ccc(-c2ccccc2)cc1 [Example 8JJJJJJJ, N^2-(biphenyl-4-ylcarbonyl)-N-[2-(5-chloro-2-thienyl)-1,1-dimethylethyl]-L-α-glutamine]
- IC50 ([1]; Table 3): < 30 nM
- IC50 ([2]; Table 3): 53 nM
